Patent US11827628B2, “Compositions and methods for inhibition of the JAK pathway” (Rigel Pharmaceuticals, Inc., priority 2005, dated 2023)
Structures can show the parent of a compound that is named as a salt. Where two headings read alike, the source gives them in different places.

Tests used:
[1] = tested on: Primary human T-cells; assay: Primary Human T-Cell Proliferation Assay Stimulated with IL-2 (CellTiter-Glo); format: cell-based; conditions: read-out: IC50, Example 42
How it was run: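 Peripheral blood T-cells pre-activated with anti-CD3/anti-CD28 and IL-2 were washed free of IL-2, then cultured with compound plus IL-2 for 72 hours at 37° C, duplicate wells. Viability read as ATP by CellTiter-Glo luminescence; IC50 reported.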

[2] = tested on: up-regulation of ICAM-1 (CD54) by IFNγ in A549 lung epithelial cells; assay: A549 Epithelial Line Stimulated with IFNγ (ICAM-1 surface expression, FACS); format: cell-based, human; conditions: ICAM-1 expression by FACS, read-out: IC50, Example 43
How it was run: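 A549 cells pre-incubated 1 h with compound (30 μM to 14 nM, 5% FBS, 0.3% DMSO), then stimulated with IFNγ (75 ng/mL) for 24 h. Surface ICAM-1 stained with APC anti-CD54 and read by flow cytometry; geometric mean of live-gated events plotted against concentration for EC50.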

[3] = primary human T-cells stimulated with IL-2, proliferation
[4] = A549 cells stimulated with IFNγ
[5] = primary human T-cell proliferation stimulated with IL-2
[6] = A549 epithelial line stimulated with IFNγ

Compound	IC50 [1, 3]	IC50 [1, 5]	also measured
COCCn1ncc2cc(Nc3nc(Nc4cccc(S(N)(=O)=O)c4)ncc3F)ccc21 [VII-23, N2-(3-Aminosulfonylphenyl)-5-fluoro-N4-[1-(2-methoxyethyl)indazolin-5-yl]-2,4-pyrimidinediamine]	161 nM	–	IC50 [2, 4]: 61300 nM
CS(=O)(=O)N1CCc2cc(Nc3nc(Nc4cccc(S(N)(=O)=O)c4)ncc3F)ccc21 [VII-60, N2-(3-Aminosulfonylphenyl)-5-fluoro-N4-[4-(1-methylsulfonyl)indolin-5-yl]-2,4-pyrimidinediamine]	152 nM	–	IC50 [2, 4]: 2600 nM
Cc1cc(Nc2nc(Nc3ccc(S(N)(=O)=O)cc3)ncc2F)ccc1OC(C)C(N)=O (racemic) [Compound I-119, Racemic N4-[4-(1-Aminocarbonyl)ethoxy-3-methyl]phenyl-N2-(4-aminosulfonyl)phenyl-5-fluoro-2,4-pyrimidinediamine]	–	2440 nM	IC50 [2, 6]: 9670 nM
Cc1cc(Nc2nc(Nc3cccc(S(N)(=O)=O)c3)ncc2F)cc(C)c1OC(C)C(N)=O (racemic) [Compound I-123, Racemic N4-[4-(1-Aminocarbonyl)ethoxy-3,5-dimethyl]phenyl-N2-(3-aminosulfonyl)phenyl-5-fluoro-2,4-pyrimidinediamine]	–	225 nM	IC50 [2, 6]: 12800 nM
N#CCn1ccc2cc(Nc3nc(Nc4cccc(S(N)(=O)=O)c4)ncc3F)ccc21 [IX-5, N2-(3-Aminosulfonylphenyl)-N4-(1-cyanomethyleneindol-5-yl)-5-fluoro-2,4-pyrimidinediamine]	73.8 nM	–	IC50 [2, 4]: 6100 nM
Cc1ccc(Nc2ncc(F)c(Nc3ccc(OCc4cccnc4)cc3)n2)cc1S(N)(=O)=O [Compound I-189, N2-(3-Aminosulfonyl-4-methylphenyl)-5-fluoro-N4-[4-(3-pyridinyl)methyleneoxyphenyl]-2,4-pyrimidinediamine]	–	143 nM	IC50 [2, 6]: 6740 nM
CC(Oc1ccc(Nc2nc(Nc3cccc(S(N)(=O)=O)c3)ncc2F)cc1)C(N)=O (racemic) [Compound I-117, Racemic N4-[4-(1-Aminocarbonyl)ethoxy]phenyl-N2-(3-aminosulfonyl)phenyl-5-fluoro-2,4-pyrimidinediamine]	–	301 nM	IC50 [2, 6]: 36400 nM
Cc1ccc(Nc2ncc(F)c(Nc3ccc4c(ccn4CC#N)c3)n2)cc1S(N)(=O)=O [IX-8, N2-(3-Aminosulfonyl-4-methylphenyl)-N4-(1-cyanomethyleneindol-5-yl)-5-fluoro-2,4-pyrimidinediamine]	124 nM	–	IC50 [2, 4]: 5240 nM
Cc1ccc(Nc2ncc(Br)c(Nc3ccc(OCC#N)cc3)n2)cc1S(N)(=O)=O [Compound I-14, N2-(3-Aminosulfonyl-4-methylphenyl)-5-bromo-N4-(4-cyanomethyleneoxyphenyl)-2,4-pyrimidinediamine]	–	11.5 nM	IC50 [2, 6]: 612 nM
Cc1ccc(Nc2ncc(F)c(Nc3ccc(OCC#N)c(F)c3)n2)cc1S(N)(=O)=O [Compound I-11, N2-(3-Aminosulfonyl-4-methylphenyl)-5-fluoro-N4-(4-cyanomethyleneoxy-3-fluorophenyl)-2,4-pyrimidinediamine]	–	39.3 nM	IC50 [2, 6]: 17600 nM
N#CCN1C(=O)CSc2ccc(Nc3nc(Nc4cccc(S(N)(=O)=O)c4)ncc3F)cc21 [VII-36, N2-(3-Aminosulphonylphenyl)-5-fluoro-N4-(3-oxo-4-cyanomethyl-benzo[1,4]thiazin-6-yl)-2,4-pyrimidinediamine]	119 nM	–	IC50 [2, 4]: 82800 nM
Cc1ccc(Nc2ncc(F)c(Nc3ccc(OC(C)C(N)=O)cc3)n2)cc1S(N)(=O)=O (stereo not drawn) [Compound I-118, N4-[4-(1-Aminocarbonyl)ethoxy]phenyl-N2-(3-aminosulfonyl-4-methyl)phenyl-5-fluoro-2,4-pyrimidinediamine]	–	557 nM	–
COCCCn1ncc2cc(Nc3nc(Nc4cccc(S(N)(=O)=O)c4)ncc3F)ccc21 [VII-22, N2-(3-Aminosulfonylphenyl)-5-fluoro-N4-[1-(3-methoxypropyl)indazolin-5-yl]-2,4-pyrimidinediamine]	128 nM	–	–
Cc1cnc(Nc2cccc(S(N)(=O)=O)c2)nc1Nc1ccc(OCc2ccccn2)cc1 [Compound I-179, N2-(3-Aminosulfonylphenyl)-5-methyl-N4-[4-(2-pyridinyl)methyleneoxyphenyl]-2,4-pyrimidinediamine]	–	11.8 nM	–
NS(=O)(=O)c1cccc(Nc2ncc(F)c(Nc3ccc(OCC(F)(F)F)cc3)n2)c1 [VI-47, N2-(3-Aminosulfonylphenyl)-5-fluoro-N4-(4-trifluoromethylmethyleneoxyphenyl)-2,4-pyrimidinediamine]	259 nM	–	–
Cc1cc(COc2cccc(Nc3nc(Nc4ccc(C)c(S(N)(=O)=O)c4)ncc3F)c2)no1 [Compound I-214]	–	1330 nM	–

Compound	IC50 [1, 3]	IC50 [1, 5]	also measured
Cc1ccc(Nc2ncc(F)c(Nc3ccc4c(c3)CN(C(=O)N(C)C)CC4)n2)cc1S(N)(=O)=O [VII-18, N2-(3-Aminosulfonyl-4-methylphenyl)-5-fluoro-N4-[2-(dimethylaminocarbonyl)-1,2,3,4-tetrahydroisoquin-7-yl]-2,4-pyrimidinediamine]	839 nM	–	–
CNS(=O)(=O)c1cc(Nc2ncc(F)c(Nc3ccc(Cn4ccnc4)cc3)n2)ccc1C [III-85, 5-Fluoro-N2-[3-(N-methylaminosulfony)-4-methylphenyl]-N4-[4-(1-imidazolylmethyl)phenyl]-2,4-pyrimidinediamine hydrochloride]	–	–	IC50 ([1]; primary human T-cell proliferation stimulated with IL-2, hydrochloride): 122 nM
C[Si](C)(C)C#Cc1cnc(Nc2cccc(S(N)(=O)=O)c2)nc1Nc1ccc(OCC#N)cc1 [Compound I-15, N2-(3-Aminosulfonylphenyl)-N4-(4-cyanomethyleneoxyphenyl)-5-trimethylsilylacetylene-2,4-pyrimidinediamine]	–	1180 nM	–
CN1C(=O)C(C)(C)Oc2cc(Nc3nc(Nc4cccc(S(N)(=O)=O)c4)ncc3F)cnc21 [VII-42, N2-(3-Aminosulfonylphenyl)-N4-[2,2,4-trimethyl-3-oxo-5-pyrid[1,4]oxazin-7-yl]-5-fluoro-2,4-pyrimidinediamine]	7280 nM	–	–
N#CCn1ccc2cc(Nc3nc(Nc4ccc(Cl)c(S(N)(=O)=O)c4)ncc3F)ccc21 [IX-7, N2-(3-Aminosulfonyl-4-chlorophenyl)-N4-(1-cyanomethyleneindol-5-yl)-5-fluoro-2,4-pyrimidinediamine]	751 nM	–	–
CN(C)C(=O)C1Cc2cc(Nc3nc(Nc4ccc(Cl)c(S(N)(=O)=O)c4)ncc3F)ccc2O1 (racemic) [VII-27, Racemic N2-(3-Aminosulfonyl-4-chlorophenyl)-N4-[2-(N,N-dimethylaminocarbonyl)-2,3-dihydrobenzofuran-5-yl]-5-fluoro-2,4-pyrimidinediamine]	2050 nM	–	–
Cc1ccc(Nc2ncc(F)c(Nc3ccc4c(c3)CC(C(=O)N(C)C)O4)n2)cc1S(N)(=O)=O (racemic) [VII-26, Racemic N2-(3-Aminosulfonyl-4-methylphenyl)-N4-[2-(N,N-dimethylaminocarbonyl)-2,3-dihydrobenzofuran-5-yl]-5-fluoro-2,4-pyrimidinediamine]	1200 nM	–	–
COCCOc1ccc(Nc2nc(Nc3ccc(Cl)c(S(N)(=O)=O)c3)ncc2F)cc1 [VI-111, N2-(3-Aminosulfonyl-4-chlorophenyl)-5-fluoro-N4-[4-(2-methoxyethyleneoxy)phenyl]-2,4-pyrimdinediamine]	1090 nM	–	–
Cc1cc(COc2ccc(Nc3nc(Nc4ccc(C)c(S(N)(=O)=O)c4)ncc3F)cc2)n(C)n1 [Compound I-198, N2-(3-Aminosulfonyl-4-methylphenyl)-N4-[4-(1,3-dimethyl-(1H)-pyrazol-5-yl)methyleneoxyphenyl]-5-fluoro-2,4-pyrimidinediamine]	–	460 nM	–
CNC(=O)N1CCc2ccc(Nc3nc(Nc4ccc(C)c(S(N)(=O)=O)c4)ncc3F)cc2C1 [VII-17, N2-(3-Aminosulfonyl-4-methylphenyl)-5-fluoro-N4-[2-(methylaminocarbonyl)-1,2,3,4-tetrahydroisoquin-7-yl]-2,4-pyrimidinediamine]	2100 nM	–	–
CNS(=O)(=O)c1cc(Nc2ncc(F)c(Nc3ccc(Cn4ccnc4)cc3)n2)ccc1C [III-86, 5-Fluoro-N2-[3-(N-methylaminosulfony)-4-methylphenyl]-N4-[4-(1-imidazolylmethyl)phenyl]-2,4-pyrimidinediamine dihydrochloride]	–	–	IC50 ([1]; primary human T-cell proliferation stimulated with IL-2, dihydrochloride): 93.9 nM
CCN(CC)CCNS(=O)(=O)c1ccc(Nc2ncc(F)c(Nc3ccc(OCc4cccnc4)cc3)n2)cc1 [Compound I-191, N2-[4-(2-N,N-Diethylaminoethyl)aminosulfonylphenyl)-5-fluoro-N4-[4-(3-pyridinyl)methyleneoxyphenyl]-2,4-pyrimidinediamine]	–	292 nM	–
CS(=O)(=O)N1CCc2cc(Nc3nc(Nc4ccc(S(N)(=O)=O)cc4)ncc3F)ccc21 [VII-63]	301 nM	–	–
NS(=O)(=O)c1cccc(Nc2ncc(F)c(Nc3ccc(OCc4ccccn4)cc3)n2)c1 [Compound I-196, N2-(3-Aminosulfonylphenyl)-5-fluoro-N4-4-[(2-pyridinyl)methyleneoxyphenyl]-2,4-pyrimidinediamine Hydrochloride Salt]	–	–	IC50 ([1]; primary human T-cell proliferation stimulated with IL-2, Hydrochloride Salt): 139 nM
CC(C)(Oc1ccc(Nc2nc(Nc3cccc(S(N)(=O)=O)c3)ncc2F)cc1)C(N)=O [Compound I-126, N4-[4-(1-Aminocarbonyl-1-methyl)ethoxy]phenyl-N2-(3-aminosulfonyl)phenyl-5-fluoro-2,4-pyrimidinediamine]	–	610 nM	–
